Source: ChEMBL document CHEMBL1201862, “PubChem BioAssay data set” (2004)
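Exposure lasted 48 hours, with cells grown in 96-well plates and compounds tested at five concentrations. GI50 marks 50% less growth.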 Activity calls are given as the source filed them. Rule as the data show it: active = GI50 up to about 1.1 µM and inactive = higher.

Key:
Test in all cases: NCI tumour cell line growth inhibition, 48 h
SK-OV-3 = test system: SK-OV-3
SF-268 = test system: SF-268
EKVX = test system: EKVX
OVCAR-4 = test system: OVCAR-4
PC-3 = test system: PC-3
SK-MEL-2 = test system: SK-MEL-2
ACHN = test system: ACHN
IGROV-1 = test system: IGROV-1
HCC 2998 = test system: HCC 2998
T47D = test system: T47D
NCI/ADR-RES = test system: NCI/ADR-RES
SR = test system: SR
SNB-75 = test system: SNB-75
RXF 393 = test system: RXF 393
HOP-62 = test system: HOP-62
UACC-257 = test system: UACC-257
NCI-H226 = test system: NCI-H226
SN12C = test system: SN12C
MDA-MB-435 = test system: MDA-MB-435
HT-29 = test system: HT-29
HCT-15 = test system: HCT-15
SF-295 = test system: SF-295
OVCAR-5 = test system: OVCAR-5
Hs-578T = test system: Hs-578T
NCI-H460 = test system: NCI-H460
M14 = test system: M14
SK-MEL-5 = test system: SK-MEL-5
HOP-92 = test system: HOP-92
K562 = test system: K562
MCF7 = test system: MCF7
SK-MEL-28 = test system: SK-MEL-28
MDA-N = test system: MDA-N
MDA-MB-231 = test system: MDA-MB-231
DU-145 = test system: DU-145
KM12 = test system: KM12
LOX IMVI = test system: LOX IMVI
HL-60 = test system: HL-60
CAKI-1 = test system: CAKI-1
RPMI-8226 = test system: RPMI-8226
Malme-3M = test system: Malme-3M
COLO 205 = test system: COLO 205
CCRF-CEM = test system: CCRF-CEM
NCI-H23 = test system: NCI-H23
OVCAR-8 = test system: OVCAR-8
TK-10 = test system: TK-10
UO-31 = test system: UO-31
786-0 = test system: 786-0
BT-549 = test system: BT-549
MOLT-4 = test system: MOLT-4
A549 = test system: A549
NCI-H522 = test system: NCI-H522
UACC-62 = test system: UACC-62
SNB-19 = test system: SNB-19
SW-620 = test system: SW-620
U-251 = test system: U-251
OVCAR-3 = test system: OVCAR-3
HCT-116 = test system: HCT-116
SF-539 = test system: SF-539
A498 = test system: A498

`C=CCN1CCC2(CC1)NC(=O)c1ccccc1O2` was tested, and the GI50 (SK-OV-3) was > 100 µM (inactive), the GI50 (SF-268) was > 100 µM (inactive) and the GI50 (EKVX) was > 100 µM (inactive). The GI50 (OVCAR-4) was > 100 µM (inactive), the GI50 (PC-3) was > 100 µM (inactive) and the GI50 (SK-MEL-2) was > 100 µM (inactive). For the same compound, the GI50 (ACHN) was > 100 µM (inactive), the GI50 (IGROV-1) was > 100 µM (inactive) and the GI50 (HCC 2998) was > 100 µM (inactive). For the same compound, the GI50 (T47D) was > 100 µM (inactive), the GI50 (NCI/ADR-RES) was > 100 µM (inactive) and the GI50 (SR) was > 100 µM (inactive). The GI50 (SNB-75) was > 100 µM (inactive), the GI50 (RXF 393) was > 100 µM (inactive) and the GI50 (HOP-62) was > 100 µM (inactive). The GI50 (UACC-257) was > 100 µM (inactive), the GI50 (NCI-H226) was > 100 µM (inactive) and the GI50 (SN12C) was > 100 µM (inactive). The GI50 (MDA-MB-435) was > 100 µM (inactive), the GI50 (HT-29) was > 100 µM (inactive) and the GI50 (HCT-15) was over 100 µM. The GI50 (SF-295) was > 100 µM (inactive), the GI50 (OVCAR-5) was > 100 µM (inactive) and the GI50 (Hs-578T) was > 100 µM (inactive). For the same compound, the GI50 (NCI-H460) was > 100 µM (inactive), the GI50 (M14) was > 100 µM (inactive) and the GI50 (SK-MEL-5) was > 100 µM (inactive). The GI50 (HOP-92) was > 100 µM (inactive), the GI50 (K562) was > 100 µM (inactive) and the GI50 (MCF7) was > 100 µM (inactive). The GI50 (SK-MEL-28) was > 100 µM (inactive), the GI50 (MDA-N) was > 100 µM (inactive) and the GI50 (MDA-MB-231) was > 100 µM (inactive). The GI50 (DU-145) was > 100 µM (inactive), the GI50 (KM12) was > 100 µM (inactive) and the GI50 (LOX IMVI) was > 100 µM (inactive). For the same compound, the GI50 (HL-60) was > 100 µM (inactive), the GI50 (CAKI-1) was > 100 µM (inactive) and the GI50 (RPMI-8226) was > 100 µM (inactive). For the same compound, the GI50 (Malme-3M) was > 100 µM (inactive), the GI50 (COLO 205) was > 100 µM (inactive) and the GI50 (CCRF-CEM) was > 100 µM (inactive). For the same compound, the GI50 (NCI-H23) was > 100 µM (inactive), the GI50 (OVCAR-8) was > 100 µM (inactive) and the GI50 (TK-10) was > 100 µM (inactive). The GI50 (UO-31) was > 100 µM (inactive), the GI50 (786-0) was > 100 µM (inactive) and the GI50 (BT-549) was > 100 µM (inactive). For the same compound, the GI50 (MOLT-4) was > 100 µM (inactive), the GI50 (A549) was > 100 µM (inactive) and the GI50 (NCI-H522) was > 100 µM (inactive). For the same compound, the GI50 (UACC-62) was > 100 µM (inactive), the GI50 (SNB-19) was > 100 µM (inactive) and the GI50 (SW-620) was > 100 µM (inactive). For the same compound, the GI50 (U-251) was > 100 µM (inactive), the GI50 (OVCAR-3) was > 100 µM (inactive) and the GI50 (HCT-116) was > 100 µM (inactive). The GI50 (SF-539) was > 100 µM (inactive).

`O=C(CCc1cc(O)cc(O)c1)NCCc1cc(O)cc(OCc2ccccc2)c1` was tested, and the GI50 (SK-OV-3) was 59.4 µM (inactive), the GI50 (SF-268) was 29.6 µM (inactive) and the GI50 (EKVX) was 57.3 µM (inactive). The GI50 (PC-3) was 37.8 µM (inactive), the GI50 (SK-MEL-2) was 44.8 µM (inactive) and the GI50 (ACHN) was 24.7 µM (inactive). For the same compound, the GI50 (IGROV-1) was 59.3 µM (inactive), the GI50 (HCC 2998) was 20.5 µM (inactive) and the GI50 (T47D) was 34 µM (inactive). The GI50 (NCI/ADR-RES) was > 100 µM (inactive), the GI50 (SR) was 30.5 µM (inactive) and the GI50 (SNB-75) was 27.2 µM (inactive). For the same compound, the GI50 (RXF 393) was 37 µM (inactive), the GI50 (HOP-62) was 43.6 µM (inactive) and the GI50 (UACC-257) was 82.4 µM (inactive). The GI50 (NCI-H226) was 62.7 µM (inactive), the GI50 (SN12C) was 39.3 µM (inactive) and the GI50 (MDA-MB-435) was 36.2 µM (inactive). For the same compound, the GI50 (HT-29) was 29 µM (inactive), the GI50 (HCT-15) was 68.9 µM and the GI50 (SF-295) was 32.9 µM (inactive). For the same compound, the GI50 (OVCAR-5) was 63 µM (inactive), the GI50 (Hs-578T) was 32.1 µM (inactive) and the GI50 (NCI-H460) was 20.4 µM (inactive). For the same compound, the GI50 (M14) was 35.8 µM (inactive), the GI50 (SK-MEL-5) was 19.1 µM (inactive) and the GI50 (HOP-92) was 53.1 µM (inactive). The GI50 (K562) was 36.1 µM (inactive), the GI50 (MCF7) was 32.6 µM (inactive) and the GI50 (SK-MEL-28) was 54.8 µM (inactive). The GI50 (MDA-N) was 27.5 µM (inactive), the GI50 (MDA-MB-231) was 29.8 µM (inactive) and the GI50 (DU-145) was 33.1 µM (inactive). The GI50 (KM12) was 34 µM (inactive), the GI50 (LOX IMVI) was 33.7 µM (inactive) and the GI50 (CAKI-1) was > 100 µM (inactive). For the same compound, the GI50 (RPMI-8226) was 35.8 µM (inactive), the GI50 (COLO 205) was 48.3 µM (inactive) and the GI50 (CCRF-CEM) was > 10 µM (inactive). The GI50 (A498) was > 100 µM (inactive), the GI50 (NCI-H23) was 23.4 µM (inactive) and the GI50 (OVCAR-8) was 34.3 µM (inactive). For the same compound, the GI50 (TK-10) was > 100 µM (inactive), the GI50 (UO-31) was 22.2 µM (inactive) and the GI50 (786-0) was 64.9 µM (inactive). The GI50 (BT-549) was 29.6 µM (inactive), the GI50 (MOLT-4) was 28.9 µM (inactive) and the GI50 (A549) was 42.3 µM (inactive). For the same compound, the GI50 (NCI-H522) was 36.5 µM (inactive), the GI50 (UACC-62) was 32.1 µM (inactive) and the GI50 (SNB-19) was 26.4 µM (inactive). For the same compound, the GI50 (SW-620) was 72.1 µM (inactive), the GI50 (U-251) was 41.8 µM (inactive) and the GI50 (OVCAR-3) was 35.7 µM (inactive). For the same compound, the GI50 (HCT-116) was 35.7 µM (inactive) and the GI50 (SF-539) was 36.7 µM (inactive).
